In patent publication US20090074795A1, “Methods for addressing ocular diseases through interference with the wnt signaling pathway” (priority 2007, published 2009):

Columns and labels:
[1] = test system: bovine retinal capillary endothelial cells (BRCEC); assay: β-catenin activation by high glucose in BRCEC; format: cell-based; settings: 30 mM glucose with 10 μM aminoguanidine, 24 h
Experimental: To elucidate the mechanism for of the wnt pathway activation induced by high glucose, primary bovine retinal capillary endothelial cells (BRCEC) were treated with low glucose (5 mM glucose and 20 mM mannitol), high glucose (30 mM glucose), and high glucose together with a known anti-oxidant (30 mM glucose with 10 μM aminoguanidine) for 24 h. The nuclear levels of β-catenin were examined by immunocytochemistry using the antibody for β-catenin. […] The nuclear translocation of β-catenin induced by high glucose was blocked by aminoguanidine.
According to embodiments of experimental data, cultured BRCEC were exposed to 5 mM glucose plus 20 mM mannitol as control (FIG. 12A), 30 mM glucose (FIG. 12B), and 30 mM glucose plus 10 μM aminoguanidine (AG) (FIG. 12C) for 24 hours. […] In FIG. 12D, protein levels of β-catenin were determined using western blot analysis, and normalized by β-actin levels. Each lane of FIG. 12D represents an individual culture dish.

[2] = test system: primary RCEC; assay: HIF-1 activation and VEGF expression induced by LiCl in primary RCEC; format: cell-based, bovine; settings: 50 mM LiCl, 24 hours
Experimental: Blockade of the wnt pathway by DKK1 down-regulates VEGF and HIF-1 expression and reduces vascular leakage in the retina of diabetic rats. To activate the wnt pathway, primary RCEC were treated with 50 mM LiCl, a specific activator of the wnt pathway, in the presence or absence of 85 ng/ml DKK1, a specific inhibitor of the wnt pathway, or BSA for 24 hours. Hypoxia was used as a positive control for HIF-1 activation. The HIF-1 nuclear translocation, a key step in its activation, was measured by immunocytochemistry. Both LiCl and hypoxia increased nuclear levels of HIF-1α, indicating an increased nuclear translocation.
According to embodiments of experimental data, RCEC were exposed to normoxia (FIG. 17A), hypoxia (1% O2) (FIG. 17B), 50 mM LiCl with BSA (FIG. 17C), or 50 mM LiCl plus 85 ng/ml DKK1 (FIG. 17D) for 24 hours. The nuclear translocation of HIF-1α was determined by immunocytochemistry with an antibody against HIF-1α. […] In FIG. 17E, the total levels of VEGF and HIF-1α were determined by western blot analysis with an antibody against HIF-1α or VEGF.

| Structure (SMILES) | nuclear translocation of β-catenin induced by high glucose ([1]; immunocytochemistry) | total levels of β-catenin increased by high glucose ([1]; western blot) | nuclear levels of HIF-1α ([2]; immunocytochemistry) | expression of HIF-1α ([2]; western blot) | expression of VEGF ([2]; western blot) |
| --- | --- | --- | --- | --- | --- |
| N=C(N)NN [aminoguanidine] | blocked | blocked |  |  |  |
| [Cl-].[Li+] [LiCl, reference compound] |  |  | increased | up-regulated | up-regulated |
